Measured values taken from PubChem BioAssay (NCI).
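Test compounds were applied to cells in 96-well plates for 48 hours at 5 doses. GI50: concentration for 50% inhibition of growth. Definition used: TGI = concentration required for complete inhibition of growth.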

Key:
Assay in all cases: NCI tumour cell line growth inhibition, 48 h
UACC-62 melanoma = system: UACC-62 melanoma
U251 CNS = system: U251 CNS
K-562 leukemia = system: K-562 leukemia
BT-549 breast = system: BT-549 breast
SF-295 CNS = system: SF-295 CNS
OVCAR-5 ovarian = system: OVCAR-5 ovarian
T-47D breast = system: T-47D breast
UO-31 renal = system: UO-31 renal
OVCAR-3 ovarian = system: OVCAR-3 ovarian
SK-MEL-2 melanoma = system: SK-MEL-2 melanoma
EKVX NSCLC = system: EKVX NSCLC
HS 578T breast = system: HS 578T breast
A549 NSCLC = system: A549 NSCLC
RPMI-8226 leukemia = system: RPMI-8226 leukemia
OVCAR-8 ovarian = system: OVCAR-8 ovarian
IGROV1 ovarian = system: IGROV1 ovarian
SK-MEL-28 melanoma = system: SK-MEL-28 melanoma
KM12 colon = system: KM12 colon
NCI/ADR-RES ovarian = system: NCI/ADR-RES ovarian
CCRF-CEM leukemia = system: CCRF-CEM leukemia
SK-OV-3 ovarian = system: SK-OV-3 ovarian
SW-620 colon = system: SW-620 colon
SNB-75 CNS = system: SNB-75 CNS
MDA-MB-435 = system: MDA-MB-435
DU-145 prostate = system: DU-145 prostate
SN12C renal = system: SN12C renal
HOP-62 NSCLC = system: HOP-62 NSCLC
SF-268 CNS = system: SF-268 CNS
HCT-116 colon = system: HCT-116 colon
MCF7 breast = system: MCF7 breast
786-0 renal = system: 786-0 renal
MALME-3M melanoma = system: MALME-3M melanoma
NCI-H522 lung = system: NCI-H522 lung
A498 renal = system: A498 renal
MOLT-4 leukemia = system: MOLT-4 leukemia
TK-10 renal = system: TK-10 renal
SF-539 CNS = system: SF-539 CNS
HOP-92 NSCLC = system: HOP-92 NSCLC
CAKI-1 renal = system: CAKI-1 renal
HCT-15 colon = system: HCT-15 colon
COLO 205 colon = system: COLO 205 colon
HL-60(TB) leukemia = system: HL-60(TB) leukemia
M14 melanoma = system: M14 melanoma
SK-MEL-5 melanoma = system: SK-MEL-5 melanoma
ACHN renal = system: ACHN renal
SNB-19 CNS = system: SNB-19 CNS
NCI-H226 lung = system: NCI-H226 lung
HCC-2998 colon = system: HCC-2998 colon
HT29 colon = system: HT29 colon
MDA-MB-231 breast = system: MDA-MB-231 breast
RXF 393 renal = system: RXF 393 renal
NCI-H460 lung = system: NCI-H460 lung
OVCAR-4 ovarian = system: OVCAR-4 ovarian
PC-3 prostate = system: PC-3 prostate
UACC-257 melanoma = system: UACC-257 melanoma
NCI-H23 lung = system: NCI-H23 lung
LOX IMVI melanoma = system: LOX IMVI melanoma
SR leukemia = system: SR leukemia

NC(=O)c1cccc(-n2ccc3cc(NC(=O)Nc4ccc(N5CCOCC5)c(C(F)(F)F)c4)ccc32)n1
GI50 (UACC-62 melanoma): 1650 nM
TGI (UACC-62 melanoma): 4140 nM
GI50 (U251 CNS): 1250 nM
TGI (U251 CNS): 12100 nM
GI50 (K-562 leukemia): 946 nM
TGI (K-562 leukemia): > 100000 nM
GI50 (BT-549 breast): 1790 nM
TGI (BT-549 breast): 5040 nM
GI50 (SF-295 CNS): 419 nM
TGI (SF-295 CNS): 2310 nM
GI50 (OVCAR-5 ovarian): 2950 nM
TGI (OVCAR-5 ovarian): > 100000 nM
GI50 (T-47D breast): 463 nM
TGI (T-47D breast): 3020 nM
GI50 (UO-31 renal): 1840 nM
TGI (UO-31 renal): 5210 nM
GI50 (OVCAR-3 ovarian): 1990 nM
TGI (OVCAR-3 ovarian): 5370 nM
GI50 (SK-MEL-2 melanoma): 2110 nM
TGI (SK-MEL-2 melanoma): 5090 nM
GI50 (EKVX NSCLC): 2900 nM
TGI (EKVX NSCLC): > 100000 nM
GI50 (HS 578T breast): 835 nM
TGI (HS 578T breast): 4830 nM
GI50 (A549 NSCLC): 2640 nM
TGI (A549 NSCLC): > 100000 nM
GI50 (RPMI-8226 leukemia): 505 nM
TGI (RPMI-8226 leukemia): 2290 nM
GI50 (OVCAR-8 ovarian): 1480 nM
TGI (OVCAR-8 ovarian): 8380 nM
GI50 (IGROV1 ovarian): 2250 nM
TGI (IGROV1 ovarian): 6940 nM
GI50 (SK-MEL-28 melanoma): 2040 nM
TGI (SK-MEL-28 melanoma): 8830 nM
GI50 (KM12 colon): 397 nM
TGI (KM12 colon): 4410 nM
GI50 (NCI/ADR-RES ovarian): 2650 nM
TGI (NCI/ADR-RES ovarian): 35400 nM
GI50 (CCRF-CEM leukemia): 741 nM
TGI (CCRF-CEM leukemia): 4740 nM
GI50 (SK-OV-3 ovarian): 2730 nM
TGI (SK-OV-3 ovarian): 8950 nM
GI50 (SW-620 colon): 2870 nM
TGI (SW-620 colon): > 100000 nM
GI50 (SNB-75 CNS): 690 nM
TGI (SNB-75 CNS): 4010 nM
GI50 (MDA-MB-435): 2030 nM
TGI (MDA-MB-435): 7190 nM
GI50 (DU-145 prostate): 3010 nM
TGI (DU-145 prostate): > 100000 nM
GI50 (SN12C renal): 2190 nM
TGI (SN12C renal): 7360 nM
GI50 (HOP-62 NSCLC): 1500 nM
TGI (HOP-62 NSCLC): 4100 nM
GI50 (SF-268 CNS): 2670 nM
TGI (SF-268 CNS): 8940 nM
GI50 (HCT-116 colon): 1910 nM
TGI (HCT-116 colon): 8570 nM
GI50 (MCF7 breast): 124 nM
TGI (MCF7 breast): 3160 nM
GI50 (786-0 renal): 670 nM
TGI (786-0 renal): 40600 nM
GI50 (MALME-3M melanoma): 1590 nM
TGI (MALME-3M melanoma): 4340 nM
GI50 (NCI-H522 lung): 2070 nM
TGI (NCI-H522 lung): 7820 nM
GI50 (A498 renal): 2010 nM
TGI (A498 renal): 7320 nM
GI50 (MOLT-4 leukemia): 1650 nM
TGI (MOLT-4 leukemia): 9010 nM
GI50 (TK-10 renal): 2750 nM
TGI (TK-10 renal): 8290 nM
GI50 (SF-539 CNS): 616 nM
TGI (SF-539 CNS): 2790 nM
GI50 (HOP-92 NSCLC): 2100 nM
TGI (HOP-92 NSCLC): 4820 nM
GI50 (CAKI-1 renal): 1900 nM
TGI (CAKI-1 renal): 9410 nM
GI50 (HCT-15 colon): 1590 nM
TGI (HCT-15 colon): 6610 nM
GI50 (COLO 205 colon): 2060 nM
TGI (COLO 205 colon): 5510 nM
GI50 (HL-60(TB) leukemia): 2050 nM
TGI (HL-60(TB) leukemia): 7500 nM
GI50 (M14 melanoma): 2250 nM
TGI (M14 melanoma): 6910 nM
GI50 (SK-MEL-5 melanoma): 1510 nM
TGI (SK-MEL-5 melanoma): 3470 nM
GI50 (ACHN renal): 2700 nM
TGI (ACHN renal): 8590 nM
GI50 (SNB-19 CNS): 1860 nM
TGI (SNB-19 CNS): 6550 nM
GI50 (NCI-H226 lung): 1740 nM
TGI (NCI-H226 lung): 6600 nM
GI50 (HCC-2998 colon): 3150 nM
GI50 (HT29 colon): 2340 nM
TGI (HT29 colon): > 100000 nM
GI50 (MDA-MB-231 breast): 2560 nM
TGI (MDA-MB-231 breast): 7960 nM
GI50 (RXF 393 renal): 245 nM
TGI (RXF 393 renal): 743 nM
GI50 (NCI-H460 lung): 2220 nM
TGI (NCI-H460 lung): 6510 nM
GI50 (OVCAR-4 ovarian): 2250 nM
TGI (OVCAR-4 ovarian): 7090 nM
GI50 (PC-3 prostate): 1670 nM
TGI (PC-3 prostate): 6200 nM
GI50 (UACC-257 melanoma): 2900 nM
TGI (UACC-257 melanoma): 9040 nM

COc1cc2c3c(n(CCCN4CCCCC4)c(=O)c2cc1OC)-c1cc2c(cc1C3=O)OCO2
GI50 (UACC-62 melanoma): 1380 nM
TGI (UACC-62 melanoma): 2830 nM
GI50 (K-562 leukemia): 179 nM
TGI (K-562 leukemia): 499 nM
GI50 (OVCAR-5 ovarian): 1840 nM
TGI (OVCAR-5 ovarian): 3290 nM
GI50 (T-47D breast): 1580 nM
TGI (T-47D breast): 3560 nM
GI50 (OVCAR-3 ovarian): 1630 nM
TGI (OVCAR-3 ovarian): 3020 nM
GI50 (SK-MEL-2 melanoma): 12400 nM
TGI (SK-MEL-2 melanoma): 28300 nM
GI50 (HS 578T breast): 2070 nM
TGI (HS 578T breast): 4770 nM
GI50 (RPMI-8226 leukemia): 333 nM
TGI (RPMI-8226 leukemia): 1470 nM
GI50 (OVCAR-8 ovarian): 1680 nM
TGI (OVCAR-8 ovarian): 4170 nM
GI50 (KM12 colon): 1510 nM
TGI (KM12 colon): 2850 nM
GI50 (CCRF-CEM leukemia): 130 nM
TGI (CCRF-CEM leukemia): 988 nM
GI50 (NCI-H23 lung): 1530 nM
TGI (NCI-H23 lung): 3010 nM
GI50 (SW-620 colon): 193 nM
TGI (SW-620 colon): 1350 nM
GI50 (MDA-MB-435): 1660 nM
TGI (MDA-MB-435): 3220 nM
GI50 (DU-145 prostate): 1370 nM
TGI (DU-145 prostate): 2680 nM
GI50 (SN12C renal): 1590 nM
TGI (SN12C renal): 3050 nM
GI50 (HCT-116 colon): 150 nM
TGI (HCT-116 colon): 309 nM
GI50 (MCF7 breast): 145 nM
TGI (MCF7 breast): 2050 nM
GI50 (MALME-3M melanoma): 1650 nM
TGI (MALME-3M melanoma): 3450 nM
GI50 (NCI-H522 lung): 932 nM
TGI (NCI-H522 lung): 2460 nM
GI50 (MOLT-4 leukemia): 42.3 nM
TGI (MOLT-4 leukemia): 2020 nM
GI50 (SF-539 CNS): 1460 nM
TGI (SF-539 CNS): 2830 nM
GI50 (LOX IMVI melanoma): 716 nM
TGI (LOX IMVI melanoma): 2150 nM
GI50 (HCT-15 colon): 1260 nM
TGI (HCT-15 colon): 2600 nM
GI50 (COLO 205 colon): 1110 nM
TGI (COLO 205 colon): 2430 nM
GI50 (HL-60(TB) leukemia): 341 nM
TGI (HL-60(TB) leukemia): 965 nM
GI50 (SR leukemia): 143 nM
TGI (SR leukemia): 893 nM
GI50 (M14 melanoma): 1590 nM
TGI (M14 melanoma): 3050 nM
GI50 (SK-MEL-5 melanoma): 1600 nM
TGI (SK-MEL-5 melanoma): 3010 nM
GI50 (NCI-H226 lung): 1540 nM
TGI (NCI-H226 lung): 3690 nM
GI50 (HCC-2998 colon): 1220 nM
TGI (HCC-2998 colon): 2470 nM
GI50 (HT29 colon): 1280 nM
TGI (HT29 colon): 2670 nM
GI50 (MDA-MB-231 breast): 1210 nM
TGI (MDA-MB-231 breast): 2590 nM
GI50 (PC-3 prostate): 1260 nM
TGI (PC-3 prostate): 2690 nM
GI50 (UACC-257 melanoma): 1760 nM
TGI (UACC-257 melanoma): 3960 nM
